Experimental data: patent US20260345517A1, “DOSAGE REGIMENS FOR TREATING STARGARDT DISEASE” (Alkeus Pharmaceuticals, Inc., priority 2024, published 2026)

Experiment: TEASE-1: safety and adverse events
Type: in vivo, human
Method: The Tolerability and Effects of gildeuretinol acetate in Stargardt Disease (Clinical trial group 1 also known as TEASE-1) was a 24-month, multicenter, double-masked, placebo-controlled trial designed to evaluate the efficacy and safety of daily oral gildeuretinol acetate in slowing the growth of atrophic retinal lesions in Stargardt disease patients. The trial was conducted at multiple sites in the United States (NCT02402660).
Patients 12 years or older, clinically diagnosed with Stargardt disease, with at least one ABCA4 mutation, at least one eye presenting with well-demarcated areas of reduced fundus autofluorescence, and with any visual acuity, were eligible.
Patients were randomized to gildeuretinol acetate 14 mg capsules, gildeuretinol acetate 24 mg capsules, or placebo capsules, to be taken once daily for one year. After one year, 50% of randomly selected patients receiving placebo were crossed over in a 1:1 ratio to gildeuretinol acetate 14 mg capsules or gildeuretinol acetate 24 mg capsules for a second year.
Gildeuretinol acetate and placebo capsules were identical appearing capsules. Patients were advised to avoid vitamin A-containing supplements and liver-based products. Fruits and vegetables contain beta-carotene, not preformed vitamin A, and could be consumed without limitation. Trial visits occurred at 8 weeks and 6, 12, 18, and 24 months following screening and randomization.

CC(=O)OC/C=C(C)/C=C/C=C(C)/C=C/C1=C(C)CCCC1(C)C [gildeuretinol acetate, C20-D3-retinol acetate]
Inflammation (24 mg, N = 15): 0 patients (%)
Influenza (24 mg, N = 15): 1 (6.7) patients (%)
Insomnia (24 mg, N = 15): 0 patients (%)
Intracranial pressure increased (24 mg, N = 15): 1 (6.7) patients (%)
Irritability (24 mg, N = 15): 0 patients (%)
Jaw operation (24 mg, N = 15): 1 (6.7) patients (%)
Knee arthroplasty (24 mg, N = 15): 0 patients (%)
Laryngitis (24 mg, N = 15): 0 patients (%)
Lip swelling (24 mg, N = 15): 0 patients (%)
Low density lipoprotein increased (24 mg, N = 15): 0 patients (%)
Muscle spasms (24 mg, N = 15): 0 patients (%)
Muscle strain (24 mg, N = 15): 0 patients (%)
Musculoskeletal pain (24 mg, N = 15): 1 (6.7) patients (%)
Nasopharyngitis (24 mg, N = 15): 3 (20.0) patients (%)
Nausea (24 mg, N = 15): 1 (6.7) patients (%)
Neck pain (24 mg, N = 15): 0 patients (%)
Nephrolithiasis (24 mg, N = 15): 0 patients (%)
Nerve compression (24 mg, N = 15): 0 patients (%)
Neuralgia (24 mg, N = 15): 0 patients (%)
Obsessive-compulsive disorder (24 mg, N = 15): 0 patients (%)
Oropharyngeal pain (24 mg, N = 15): 3 (20.0) patients (%)
Osteoporosis (24 mg, N = 15): 1 (6.7) patients (%)
Pain (24 mg, N = 15): 0 patients (%)
Pain in extremity (24 mg, N = 15): 2 (13.3) patients (%)
Pain in jaw (24 mg, N = 15): 0 patients (%)
Peripheral coldness (24 mg, N = 15): 0 patients (%)
Pharyngitis streptococcal (24 mg, N = 15): 0 patients (%)
Photophobia (24 mg, N = 15): 0 patients (%)
Photopsia (24 mg, N = 15): 0 patients (%)
Plantar fasciitis (24 mg, N = 15): 0 patients (%)
Pleurisy (24 mg, N = 15): 0 patients (%)
Pneumonia (24 mg, N = 15): 0 patients (%)
Premenstrual syndrome (24 mg, N = 15): 1 (6.7) patients (%)
Punctate keratitis (24 mg, N = 15): 0 patients (%)
Pyrexia (24 mg, N = 15): 1 (6.7) patients (%)
Radius fracture (24 mg, N = 15): 0 patients (%)
Rash (24 mg, N = 15): 0 patients (%)
Rotator cuff syndrome (24 mg, N = 15): 1 (6.7) patients (%)
Sialoadenitis (24 mg, N = 15): 0 patients (%)
Sinus congestion (24 mg, N = 15): 1 (6.7) patients (%)
Sinusitis (24 mg, N = 15): 0 patients (%)
Sjogren's syndrome (24 mg, N = 15): 0 patients (%)
Skin infection (24 mg, N = 15): 0 patients (%)
Subdural haematoma (24 mg, N = 15): 0 patients (%)
Syncope (24 mg, N = 15): 1 (6.7) patients (%)
Tendonitis (24 mg, N = 15): 0 patients (%)
Thoracic outlet syndrome (24 mg, N = 15): 0 patients (%)
Tongue dry (24 mg, N = 15): 0 patients (%)
Tooth abscess (24 mg, N = 15): 1 (6.7) patients (%)
Tooth extraction (24 mg, N = 15): 1 (6.7) patients (%)
Toothache (24 mg, N = 15): 0 patients (%)
Upper respiratory tract infection (24 mg, N = 15): 1 (6.7) patients (%)
Vision blurred (24 mg, N = 15): 0 patients (%)
Visual field defect (24 mg, N = 15): 0 patients (%)
Visual impairment (24 mg, N = 15): 0 patients (%)
Vitamin B12 deficiency (24 mg, N = 15): 0 patients (%)
Vitamin D decreased (24 mg, N = 15): 1 (6.7) patients (%)
Vitreous floaters (24 mg, N = 15): 0 patients (%)
Vulvovaginal candidiasis (24 mg, N = 15): 1 (6.7) patients (%)
Wrist fracture (24 mg, N = 15): 0 patients (%)
Xanthelasma (24 mg, N = 15): 1 (6.7) patients (%)
elevated intracranial pressure (24 mg, one patient): Elevated intracranial pressure was measured
papilledema grade (modified Frisen scale) with elevated intracranial pressure (24 mg, one patient, resolved upon temporary interruption and acetazolamide): Grade 1
Abdominal discomfort (crossover, N = 10): 1 (10.0) patients (%)
Abdominal distension (crossover, N = 10): 0 patients (%)
Abdominal pain upper (crossover, N = 10): 0 patients (%)
Abnormal dreams (crossover, N = 10): 0 patients (%)
Adverse events, Overall (crossover, N = 10): 8 (80) patients (%)
Alanine aminotransferase increased (crossover, N = 10): 1 (10.0) patients (%)
Alopecia (crossover, N = 10): 0 patients (%)
Ankle fracture (crossover, N = 10): 0 patients (%)
Arthralgia (crossover, N = 10): 1 (10.0) patients (%)
Arthritis (crossover, N = 10): 1 (10.0) patients (%)
Aspartate aminotransferase increased (crossover, N = 10): 1 (10.0) patients (%)
Back injury (crossover, N = 10): 0 patients (%)
Back pain (crossover, N = 10): 0 patients (%)
Blepharospasm (crossover, N = 10): 1 (10.0) patients (%)
Blood cholesterol increased (crossover, N = 10): 0 patients (%)
Blood creatinine increased (crossover, N = 10): 0 patients (%)
Blood iron decreased (crossover, N = 10): 0 patients (%)
Blood pressure increased (crossover, N = 10): 0 patients (%)
Blood triglycerides increased (crossover, N = 10): 0 patients (%)
Bowel movement irregularity (crossover, N = 10): 0 patients (%)
Bronchitis (crossover, N = 10): 0 patients (%)
Cartilage injury (crossover, N = 10): 0 patients (%)
Conjunctival laceration (crossover, N = 10): 0 patients (%)
Conjunctivitis (crossover, N = 10): 0 patients (%)
Constipation (crossover, N = 10): 0 patients (%)
Cough (crossover, N = 10): 0 patients (%)
Death (crossover, N = 10): 0 patients (%)
Depression (crossover, N = 10): 0 patients (%)
Diarrhoea (crossover, N = 10): 1 (10.0) patients (%)
Diplopia (crossover, N = 10): 0 patients (%)
Dry eye (crossover, N = 10): 0 patients (%)
Dry mouth (crossover, N = 10): 0 patients (%)
Dry skin (crossover, N = 10): 0 patients (%)
Ear discomfort (crossover, N = 10): 0 patients (%)
Ear infection (crossover, N = 10): 1 (10.0) patients (%)
Ear pain (crossover, N = 10): 0 patients (%)
Eczema (crossover, N = 10): 1 (10.0) patients (%)
Electrocardiogram abnormal (crossover, N = 10): 1 (10.0) patients (%)
Erythema (crossover, N = 10): 0 patients (%)
Eye irritation (crossover, N = 10): 0 patients (%)
Eye pain (crossover, N = 10): 0 patients (%)
Eye pruritus (crossover, N = 10): 0 patients (%)
Face injury (crossover, N = 10): 0 patients (%)
Faeces soft (crossover, N = 10): 0 patients (%)
Fall (crossover, N = 10): 0 patients (%)
Gastroenteritis (crossover, N = 10): 1 (10.0) patients (%)
Gastroenteritis viral (crossover, N = 10): 0 patients (%)
Hair texture abnormal (crossover, N = 10): 0 patients (%)
Hand fracture (crossover, N = 10): 0 patients (%)
Headache (crossover, N = 10): 0 patients (%)
Herpes zoster (crossover, N = 10): 0 patients (%)
Hordeolum (crossover, N = 10): 0 patients (%)
Hypertension (crossover, N = 10): 0 patients (%)
Hypobarism (crossover, N = 10): 0 patients (%)
Hypothyroidism (crossover, N = 10): 0 patients (%)
Hysterectomy (crossover, N = 10): 0 patients (%)
Inflammation (crossover, N = 10): 0 patients (%)
Influenza (crossover, N = 10): 0 patients (%)
Insomnia (crossover, N = 10): 0 patients (%)
Intracranial pressure increased (crossover, N = 10): 0 patients (%)
Irritability (crossover, N = 10): 0 patients (%)
Jaw operation (crossover, N = 10): 0 patients (%)
Knee arthroplasty (crossover, N = 10): 0 patients (%)
Laryngitis (crossover, N = 10): 0 patients (%)
Lip swelling (crossover, N = 10): 0 patients (%)
Low density lipoprotein increased (crossover, N = 10): 0 patients (%)
Muscle spasms (crossover, N = 10): 0 patients (%)
Muscle strain (crossover, N = 10): 0 patients (%)
Musculoskeletal pain (crossover, N = 10): 0 patients (%)
Nasopharyngitis (crossover, N = 10): 1 (10.0) patients (%)
Nausea (crossover, N = 10): 0 patients (%)
Neck pain (crossover, N = 10): 0 patients (%)
Nephrolithiasis (crossover, N = 10): 1 (10.0) patients (%)
Nerve compression (crossover, N = 10): 0 patients (%)
Neuralgia (crossover, N = 10): 0 patients (%)
Obsessive-compulsive disorder (crossover, N = 10): 0 patients (%)
Oropharyngeal pain (crossover, N = 10): 1 (10.0) patients (%)
Osteoporosis (crossover, N = 10): 0 patients (%)
Pain (crossover, N = 10): 0 patients (%)
Pain in extremity (crossover, N = 10): 0 patients (%)
Pain in jaw (crossover, N = 10): 0 patients (%)
Peripheral coldness (crossover, N = 10): 0 patients (%)
Pharyngitis streptococcal (crossover, N = 10): 0 patients (%)
Photophobia (crossover, N = 10): 0 patients (%)
Photopsia (crossover, N = 10): 0 patients (%)
Plantar fasciitis (crossover, N = 10): 0 patients (%)
Pleurisy (crossover, N = 10): 1 (10.0) patients (%)
Pneumonia (crossover, N = 10): 1 (10.0) patients (%)
Premenstrual syndrome (crossover, N = 10): 0 patients (%)
Punctate keratitis (crossover, N = 10): 0 patients (%)
Pyrexia (crossover, N = 10): 0 patients (%)
Radius fracture (crossover, N = 10): 0 patients (%)
Rash (crossover, N = 10): 1 (10.0) patients (%)
Rotator cuff syndrome (crossover, N = 10): 0 patients (%)
Sialoadenitis (crossover, N = 10): 0 patients (%)
Sinus congestion (crossover, N = 10): 0 patients (%)
Sinusitis (crossover, N = 10): 0 patients (%)
Sjogren's syndrome (crossover, N = 10): 0 patients (%)
Skin infection (crossover, N = 10): 0 patients (%)
Subdural haematoma (crossover, N = 10): 0 patients (%)
Syncope (crossover, N = 10): 0 patients (%)
Tendonitis (crossover, N = 10): 0 patients (%)
Thoracic outlet syndrome (crossover, N = 10): 0 patients (%)
Tongue dry (crossover, N = 10): 0 patients (%)
Tooth abscess (crossover, N = 10): 0 patients (%)
Tooth extraction (crossover, N = 10): 0 patients (%)
Toothache (crossover, N = 10): 0 patients (%)
Upper respiratory tract infection (crossover, N = 10): 2 (20.0) patients (%)
Vision blurred (crossover, N = 10): 1 (10.0) patients (%)
Visual field defect (crossover, N = 10): 1 (10.0) patients (%)
Visual impairment (crossover, N = 10): 0 patients (%)
Vitamin B12 deficiency (crossover, N = 10): 0 patients (%)
Vitamin D decreased (crossover, N = 10): 0 patients (%)
Vitreous floaters (crossover, N = 10): 1 (10.0) patients (%)
Vulvovaginal candidiasis (crossover, N = 10): 0 patients (%)
Wrist fracture (crossover, N = 10): 0 patients (%)
Xanthelasma (crossover, N = 10): 0 patients (%)
